In US6730687B1, “Substituted benzylthiazolidine-2, 4-dione derivatives” (Kyorin Pharmaceutical Co., Ltd., priority 1999, dated 2004):
Like-named read-outs stand apart in the source and are kept apart here.

Key:
[1] = biological target: T1, ligand-binding domain of human type PPARα (Homo sapiens, UniProt Q07869); experiment: Test of transactivation on peroxisome proliferator-activated receptor (CHO cells, reporter plasmid), PPARα
T1 sequence (Q07869 239-466 limits assumed): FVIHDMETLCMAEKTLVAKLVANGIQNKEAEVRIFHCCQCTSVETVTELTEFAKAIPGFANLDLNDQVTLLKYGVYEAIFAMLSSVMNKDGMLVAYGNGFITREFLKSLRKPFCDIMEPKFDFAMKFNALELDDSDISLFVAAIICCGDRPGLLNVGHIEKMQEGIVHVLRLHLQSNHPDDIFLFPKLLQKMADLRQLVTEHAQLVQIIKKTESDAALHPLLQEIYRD
Experimental: (§1) After 24 hours, CAT activity and β-galactosidase activity were measured.

[2] = biological target: T2, ligand-binding domain of human type PPARγ (Homo sapiens, UniProt P37231); experiment: Test of transactivation on peroxisome proliferator-activated receptor (CHO cells, reporter plasmid), PPARγ
T2 sequence (P37231 238-503 limits assumed): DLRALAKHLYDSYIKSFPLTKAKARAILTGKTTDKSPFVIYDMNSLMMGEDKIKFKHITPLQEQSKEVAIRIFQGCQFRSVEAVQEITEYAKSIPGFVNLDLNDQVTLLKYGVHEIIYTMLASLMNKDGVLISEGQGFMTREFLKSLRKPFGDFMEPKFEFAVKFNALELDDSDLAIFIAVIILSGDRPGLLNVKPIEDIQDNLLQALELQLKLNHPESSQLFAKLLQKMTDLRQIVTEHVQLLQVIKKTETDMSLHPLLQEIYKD
Experimental: as §1

[3] = read-out: Transactivation action PPARα EC50, CHO cells cotransfected with receptor and reporter plasmids, 24 hours, CAT activity, β-galactosidase internal standard

| SMILES | EC50 [1, 3] [nM] | EC50 ([2]; read-out: Transactivation action PPARγ EC50, CHO cells cotransfected with receptor and reporter plasmids, 24 hours, CAT activity, β-galactosidase internal standard) [nM] | melting point [°C] | EC50 [1] [nM] | EC50 [2] [nM] |
| --- | --- | --- | --- | --- | --- |
| CCCCC/C=C\C/C=C\C=C\[C@@H](O)C/C=C\CCCC(=O)O [(8S)-HETE, reference compound] | 1300 | – | – | – | – |
| COc1ccc(CC2SC(=O)NC2=O)cc1CC(=O)Nc1ccc(C(F)(F)F)cc1 (stereo not shown) [Example 6, N-[4-(Trifloromethyl)phenyl]-2-[5-[(2,4-dioxothiazolidin-5-yl)methyl]2-methoxyphenyl]acetamide] | 600 | 3300 | – | – | – |
| COc1ccc(CC2SC(=O)NC2=O)cc1NC(=O)Nc1ccc(C(F)(F)F)cc1 (stereo not shown) [Example 11, 5-[[4-Methoxy-3-[3-[4-(trifluoromethyl)phenyl]ureido]phenyl]methyl]thiazolidinex-2,4-dione] | – | – | 202 to 204 | 550 | 430 |
| COc1ccc(CC2SC(=O)NC2=O)cc1NC(=O)Cc1ccc(C(F)(F)F)cc1 (stereo not shown) [Example 15, N-[2-Methoxy-5-[(2,4-dioxothiazolidin-5-yl)methyl]phenyl]-2-[4-(trifluoromethyl)phenyl]acetamide] | – | – | 147 to 149 | 860 | 1100 |
| COc1ccc(CC2SC(=O)NC2=O)cc1C(=O)CCc1ccc(C(F)(F)F)cc1 (stereo not shown) [Example 22, 5-[[3-[3-[4-(Trifluoromethyl)phenyl]propanoyl]-4-methoxynhenyl]methyl]thiazolidine-2,4-dione] | – | – | 103 to 104.5 | 800 | 400 |
| COc1ccc(CC2SC(=O)NC2=O)cc1CC(=O)Nc1ccc(Oc2ccccc2)cc1 (stereo not shown) [Example 23, N-[4-(Phenoxy)phenyl]-2-[5-[(2,4-dioxothiazolidin-5-yl)methyl]-2-methoxyphenyl]acetamide] | – | – | 82 to 84 | – | – |
